Values quoted from earlier work, collected in patent US7563779B2, “L-ergothioneine, milk thistle, and S-adenosylmethionine for the prevention, treatment and repair of liver damage” (Nutramax Laboratories, priority 1998, dated 2009).

Key:
[1] = system: liver lipid accumulation; details: rats chronically intoxicated with ethanol
[2] = system: liver nodules, pre-neoplastic lesions and hepatocellular carcinomas; details: administration of SAMe
[3] = system: lipid peroxide formation in mouse liver homogenate; details: FIG. 5
[4] = system: lipid peroxidation in liver tissue; details: exogenous L-ergothioneine, liver tissue of rats

SMILES | lipid accumulation [1] | amount of early reversible nodules [2] | development of late pre-neoplastic lesions and hepatocellular carcinomas [2] | LPO formation [3] | decomposition of existing LPO [3] | lipid peroxidation by toxic compounds [4]
C[S+](CC[C@H](N)C(=O)O)C[C@H]1O[C@@H](n2cnc3c(N)ncnc32)[C@H](O)[C@@H]1O (stereo partly drawn) [SAMe, S-adenosylmethionine] | decrease lipid accumulation | fall in the amount of early reversible nodules | prevention of the development of late pre-neoplastic lesions and hepatocellular carcinomas |  |  | 
C[N+](C)(C)[C@@H](Cc1c[nH]c(=S)[nH]1)C(=O)[O-] [L-ergothioneine] |  |  |  | inhibited LPO formation | enhanced the decomposition of existing LPO | prevent lipid peroxidation
